In patent US20230331679A1, “NAPHTHALENE MONOIMIDE COMPOUNDS AND METHODS THEREOF” (JAWAHARLAL NEHRU CENTRE FOR ADVANCED SCIENTIFIC RESEARCH, priority 2020, published 2023):

What was measured:
PC12 cells = assay: Rescue of PC12 cells from Aβ42 toxicity (MTT cell viability assay); details: PC12 cells, Aβ42 20 µM + compound 40 µM, 24 h; Aβ42 alone 54%, untreated 100%
Procedure: A 96-well plate was used to culture the cells (15,000 per well) with RPMI media (10% fetal bovine serum (FBS), 5% horse serum (HS,), and 1% pen-strep (PS)) at 37° C. temperature in a 5% CO2 atmosphere. Then the media was exchanged with low serum (2% FBS) media and monomeric Aβ42 was added in the absence and presence of NMI compounds and incubated for 24 h.
The structure-activity relationship (SAR) of NMI compounds towards rescuing PC12 cells from Aβ toxicity was investigated. […] Each experiment was repeated three times (n = 3), and error bars represent the standard deviation (SD).
An Alzheimer’s disease-like environment was mimicked by exposing the cultured PC12 cells to 20 µM of Aβ42 fibrils, which formed cytotoxic aggregation species in the growth media.

[1] = Serum stability under in vitro conditions (absorbance); format: in vitro ADME; details: WT mouse blood serum, 0.5, 1, 2 and 6 h at 37° C.
APP/PS1 and WT mice = assay: Novel object identification (NOI) test; format: in vivo
Procedure: In OF test, all the experimental mice were individually allowed to explore a novel platform (45 X 45 cm) and their locomotion activity was monitored for 5 min (Sony HDRCX405 camera) and analyzed using the smart 3 software (Panlab; FIG. 16A). […] The anxiety behaviors of TGR63 treated mice were assessed by the time spent and the entries in the center zone (20 X 20 cm) of OF arena. […] Next, the effect of TGR63 on memory processing, viz., acquisition, consolidation and retrieval were evaluated through NOI test, which has been widely used as a tool to study the neurobiology of memory using the natural tendency of rodents to explore novel objects more than the familiar objects. All the experimental mice were familiarized with two identical objects (familiar objects) in a known habituated arena and allowed to explore a novel and familiar object after 24 and 48 h of familiarization (FIG. 16E). The exploration time with each object was measured using a stopwatch, and the discrimination index (DI) was determined using the formula, (time exploring the novel object - time exploring the familiar) / (time exploring novel + familiar) * 100. […] Similarly, the calculated DI after 48 h was lowest (-7) for AD vehicle cohort compared to both vehicle and TGR63 treated WT cohorts (+43 and +45, respectively) (FIG. 16G). […] The blocking of essential synaptic receptors (NMDA and AMPA) by Aβ aggregation species leading to synaptic dysfunction followed by impairment in hippocampal LTP formation. […] TGR63 treatment ameliorates the memory impairment in APP/PS 1 mice by reducing the toxic amyloid burden from the brain under progressive AD conditions.

APP/PS1 mice = assay: Amyloid burden in brain by OC immunohistochemistry; format: in vivo
Description: To evaluate the activity of TGR63 to ameliorate amyloid burden in in vivo AD model, APP/PS1 mice were bred, maintained and characterized (WT: wild type; AD: APP/PS1 positive) according to the Jackson Laboratory protocols. The double transgenic APP/PS1 mice (B6C3-Tg (APPswe, PSEN IdE9)85Dbo/J; stock number 004462), which express human transgenes APP and presenilin 1 (PS1) in the central nervous system (CNS) contains the Swedish and […], respectively. The K595N/M596L (Swedish) mutation favors the amyloidogenic processing of APP protein, and PS1 mutation ([…]) elevates the production of Aβ peptides through modifying the intra-membrane γ-complex. The presence of Aβ plaques in the APP/PS 1 AD phenotypic mouse brain was confirmed and compared with the healthy brain by Aβ plaques-specific staining protocols. FIG. 13 depicts the Staining of amyloid plaques with OC primary antibody and ThT or CQ probe, FIG. 13A represent the high-resolution confocal microscopy images of cortex and hippocampus regions of the AD mouse brain, immunostained with OC antibody (red), DAPI (blue) and ThT (green). The merged images display significant overlap between ThT and OC staining to confirm the amyloid deposition (pointed with white arrows), FIG. 13A represent the visualization of amyloid deposits associated neuronal damage: The DIC images of different regions of AD. The merged images of DIC and confocal microscopy images show amyloid plaques associated brain damage (pointed out with red arrows). The brains were harvested from the age matched WT and AD mice and treated with PFA (4%) and sucrose solution (30%) for the sagittal brain sectioning (40 µm sections). The brain sections were co-stained with ThT (λex= 442 nm, λem= 482 nm) and OC primary antibody followed by fluorescently labeled secondary antibody (λex= 633 nm, λem= 650 nm) or CQ to visualize and confirm the amyloid plaques deposition. […] Similar fluorescence signals (green and red) were absent in the age-matched WT brain section, confirming the amyloid plaques-free healthy brain (FIG. 13A). The hippocampal damage, a hallmark of advanced AD condition was partially observed in 14 month old APP/PS1 mice. Age-matched AD, and WT cohorts were administered with TGR63 (5 mg/kg body weight/day) and vehicle starting from the age of 6 months following the treatment protocols as shown in FIG. 14. The experimental mice were sacrificed after completing the behavioral studies (14 months) to investigate amyloid deposits in the brain using immunohistochemistry. The sagittal brain sections were permeabilized and blocked with PBTx (0.1 M PBS and 0.1% TritonX-100) and goat serum (1%) containing BSA (2%) at room temperature, respectively. […]

Question: Which cell viability (PC12 cells) does the source give for `CN(C)c1ccc(C#Cc2ccc3c4c(cccc24)C(=O)N(CC[N+](C)(C)C)C3=O)cc1` [TGR63, 2-(6-((4-(dimethylamino)phenyl)ethynyl)-1,3-dioxo-1H-benzo[de]isoquinolin-2(3H)-yl)-N,N,N-trimethylethan-1-aminium] here?
Answer: 80%

Question: And the “stability in blood serum (normalized absorbance at 450 nm)” value [1]?
Answer: confirmed the stability of TGR63 in blood serum

Question: And the “discrimination index (DI)” value (APP/PS1 and WT mice; AD TGR63 cohort, after 24 h, AD vehicle -3)?
Answer: +43

Question: What about the “discrimination index (DI)” value (APP/PS1 and WT mice; AD TGR63 cohort, after 48 h, AD vehicle -7) of the same compound?
Answer: +38

Question: What about the “reduction of DI at 48 h compared to 24 h” value (APP/PS1 and WT mice; TGR63 treated WT and AD cohorts) of the same compound?
Answer: ~ 5 units of DI

Question: What about the “discrimination index (DI)” value (APP/PS1 and WT mice; WT TGR63 cohort, after 24 h, WT vehicle +49) of the same compound?
Answer: +50

Question: And the “discrimination index (DI)” value (APP/PS1 and WT mice; WT TGR63 cohort, after 48 h, WT vehicle +43)?
Answer: +45

Question: And the “Aβ plaques deposits, area of the hippocampus” value (APP/PS1 mice; AD (APP/PS1) mice, 5 mg/kg body weight/day from 6 to 14 months, vehicle 6.28%)?
Answer: 0.94 % area

Question: And the “Aβ plaques deposits, area of the cortex” value (APP/PS1 mice; AD (APP/PS1) mice, 5 mg/kg body weight/day from 6 to 14 months, vehicle 8.87%)?
Answer: 1.94 % area

Question: What about the “reduction of Aβ deposits in the cortex” value (APP/PS1 mice; AD mice, versus vehicle) of the same compound?
Answer: 78%

Question: And the “reduction of Aβ deposits in the hippocampus” value (APP/PS1 mice; AD mice, versus vehicle)?
Answer: 85%
